Test [1] concerns liver cancer tissue from patients. As to the kind of experiment: Efficacy of ACP combined with oxaliplatin or sorafenib in liver cancer SuperPDTX mice model. In kind it is in vivo, NCG mice. The settings on record: pathology after 7 days; ACP 5 mg/kg p.o. Bid*7, Sorafenib 60 mg/kg p.o. Qd*7, Oxaliplatin 6 mg/kg i.p. Biw*1. The source says:
(§1) Mice: NCG (NOD-Prkdcem26I12rgem26Nju), Institute of Biomedical Research, Nanjing University
Liver cancer tissue mass were the P1 generation samples of cryopreserved collected from mice after inoculation of the samples from patients with liver cancer, and the samples used in this experiment were P2 generation samples after passage. Liver cancer samples were inoculated in the tested mice, and the size of inoculated tissue was 1*1*4 mm^3. On the day of inoculation, mice were randomly divided into 6 experimental groups with 6 mice in each group and 4 mice in each cage. The day of grouping was defined as Day 0. The mice were administered according to the experimental protocol for 7 days, and sampled within 24 hours after the end of administration. 24 h after the last administration, the experiment was ended, the mice were sacrificed, the tumor was removed, the surrounding connective tissue and muscle tissue were removed under the microscope, and stored in 10% formaldehyde.

The test system of test [2] is pancreatic cancer tissue from patients. As to the kind of experiment: Efficacy of ACP combined with gemcitabine in pancreatic cancer SuperPDTX mice model. In kind it is in vivo, NCG mice. The settings on record: ACP 5 mg/kg p.o. Bid*7, Gemcitabine 30 mg/kg i.p. BIW.
Text: as §1
Pancreatic cancer tissue mass were the P2 generation samples of cryopreserved collected from mice after inoculation of the samples from patients with pancreatic cancer, and the samples used in this experiment were P3 generation samples after passage.
Pancreatic cancer samples were inoculated in the tested mice, and the size of inoculated tissue was 1*1*4mm^3. On the day of inoculation, mice were randomly divided into 4 experimental groups with 6 mice in each group and 4 mice in each cage. The day of grouping was defined as Day 0. The mice were administered according to the experimental protocol for 7 days, and sampled within 24 hours after the end of administration. 24h after the last administration, the experiment was ended, the mice were sacrificed, the tumor was removed, the surrounding connective tissue and muscle tissue were removed under the microscope, and stored in 10% formaldehyde.

For a further test, the system named is human lung cancer A549. As to the kind of experiment: Human lung cancer A549 xenograft transplantation model in nude mice. The settings on record: ip × 7 qd; for Tumor Inhibition rate %: counted by tumor weight. In kind it is in vivo. On the procedure:
(§2) ACP Administration Group: oral doses were 5, 2.5 and 1.25 mg/kg; oral administration twice a day (with an interval of about 6 hours) for 14 days.
(§3) ACP+Adriamycin or Cyclophosphamide Administration Group: oral doses of ACP were 5, 2.5 and 1.25 mg/kg; oral administration twice a day (with an interval of about 6 hours) for 14 days. Adriamycin lmg/kg or Cyclophosphamide 15 mg/kg were administered intraperitoneally 10 min after the first ACP administration for 7 consecutive days.
(§4) Positive Control Group: Adriamycin 2 mg/kg/time or cyclophosphamide 30 mg/kg/time were administered intraperitoneally once a day for 7 days.
(§5) Negative Control Group: the same volume of solvent as the experimental group was administered, and the administration scheme was the same as that of the experimental group.
(§6) Human tumor cell lines cryopstored in liquid nitrogen were cultured at 37° C. and 5% CO2 after resuscitation. After subculture, the cells in logarithmic growth period were taken and prepared into cell suspension of about (1-2)×10^7 Cell/ml, and inoculated subcutaneously in the right axilla of nude mice 0.2 ml/mice. Under aseptic conditions, tumor tissues of the second or later generations of human tumors liver cancer QGY-7703, pancreatic cancer PANC-1, and lung cancer A549 xenograft models with vigorous growth in vivo, were taken and cut into uniform pieces with the size of 1-2 mm3, and one piece was subcutaneously inoculated in the right axilla of each naked mouse with trocar. The mouse were randomly divided into groups till the tumors inoculated grow to more than 100 mm^3 and administered according to the experimental design scheme.
(§7) After administration, the tumor size was dynamically observed and tested, and the body weight of tumor-bearing mice was weighed. The short diameter (a) and long diameter (b) of the tumor of the naked mouse were measured with calipers every 3 days, and the tumor volume was calculated according to the formula of (a^2×b)/2. The relative tumor volume (RTV) was calculated from the measured and calculated tumor volume, RTV=Vt/V0. Wherein, Vo is the tumor volume at random grouping (i.e., d0), and Vt is the tumor volume at each measurement (i.e., dn). The animals in each group were sacrificed at about three weeks, and the tumor volume was measured, dissected and weighed. The relative tumor proliferation rate and tumor inhibition rate were calculated according to the following formula: […]

Test [3] relates to human pancreatic cancer PANC-1. Kind of test: Human pancreatic cancer PANC-1 xenograft transplantation model in nude mice. It counts as in vivo. The settings on record: ip × 7 qd; for Tumor Inhibition rate %: counted by tumor weight. The method, then: as §2, §3, §4, §5, §6, §7
The test system of test [4] is human liver cancer QGY-7703. In kind it is in vivo, nude mice. To be noted: ip × 7 qd; for Tumor Inhibition rate %: counted by tumor weight. The method, then: as §2, §3, §4, §5, §6, §7

Where two headings read alike, the source gives them in different places.

As for `CNC(=O)c1cc(Oc2ccc(NC(=O)Nc3ccc(Cl)c(C(F)(F)F)c3)cc2)ccn1` [Sorafenib, sorafenib], in test [1], the “Heterotypic Degree” value is “Severe”, the “Proportion of tumor necrosis TCNR Mean” value was 18.33 ± 7.52% and the “Tumor component Mean” value turned out to be 58.33 ± 24.8%.
With `Nc1ccn([C@@H]2O[C@H](CO)[C@@H](O)C2(F)F)c(=O)n1` [Gemcitabine, gemcitabine], the “Tumor Ki67 Mean” value in test [2] (immunohistochemistry after 7 days) stood at 23.33 ± 5.16. Besides, in test [2] (pathology after 7 days), the Heterotypic Degree entry was “Moderate”, the “Proportion of tumor necrosis TCNR Mean” value is 0.00 ± 0.00 and the “Tumor component Mean” value is listed as 55.00 ± 18.71.
In the case of `COc1cccc2c1C(=O)c1c(O)c3c(c(O)c1C2=O)C[C@@](O)(C(=O)CO)C[C@@H]3O[C@H]1C[C@H](N)[C@H](O)[C@H](C)O1` [adriamycin], the “Tumor weight (gram) x ± SD” value in the test with human lung cancer A549 (1 mg/kg) was 0.843 ± 0.08 gram; with human lung cancer A549 (2 mg/kg), 0.198 ± 0.04 gram; in test [3] (1 mg/kg) it was 0.668 ± 0.09 gram; in test [3] (2 mg/kg), 0.265 ± 0.06 gram. Further, the “Tumor Inhibition rate %” value with human lung cancer A549 (1 mg/kg) was 42.26%; with human lung cancer A549 (2 mg/kg), 86.30%; in test [3] (1 mg/kg) it was 34.51%; in test [3] (2 mg/kg), 74.02%.
With `O=C1[O][Pt]2([NH][C@@H]3CCCC[C@H]3[NH]2)[O]C1=O` [Oxaliplatin, oxaliplatin], in test [1], the “Heterotypic Degree” value is on record as “Severe”, the “Proportion of tumor necrosis TCNR Mean” value was 16.67 ± 8.76% and the “Tumor component Mean” value worked out at 53.33 ± 15.1%.
Regarding `O=P1(N(CCCl)CCCl)NCCCO1` (stereo not shown) [Cyclophosphamide, cyclophosphamide], the “Tumor weight (gram) x ± SD” value in test [4] (15 mg/kg) is reported as 1.010 ± 0.19 gram; in test [4] (30 mg/kg) it was 0.197 ± 0.04 gram. Besides, the results for the “Tumor Inhibition rate %” value in test [4] (15 mg/kg) and in test [4] (30 mg/kg) were 36.88% and 87.69%, respectively.
